Experimental data as given in paper PMC7565091, “Synthesis and Inhibitory Studies of Phosphonic Acid Analogues of Homophenylalanine and Phenylalanine towards Alanyl Aminopeptidases” (Biomolecules, 2020).
Like-named read-outs stand apart in the source and are kept apart here.

Tests used:
[1] = target: T1, porcine kidney alanine aminopeptidase (pAPN, EC 3.4.11.2) (Sus scrofa, UniProt P15145); assay: Fluorogenic (Ala-AMC) enzyme inhibition assay, pAPN; type: biochemical; details: for Ki: racemic compounds, substrate Ala-AMC 100 µM, 50 mM Tris-HCl pH 7.20, 37 °C
T1 construct: porcine kidney alanine aminopeptidase (pAPN, EC 3.4.11.2); purchased Sigma Aldrich (Poznan, Poland); host or cells: porcine kidney (tissue-derived)
T1 sequence (P15145 1-963): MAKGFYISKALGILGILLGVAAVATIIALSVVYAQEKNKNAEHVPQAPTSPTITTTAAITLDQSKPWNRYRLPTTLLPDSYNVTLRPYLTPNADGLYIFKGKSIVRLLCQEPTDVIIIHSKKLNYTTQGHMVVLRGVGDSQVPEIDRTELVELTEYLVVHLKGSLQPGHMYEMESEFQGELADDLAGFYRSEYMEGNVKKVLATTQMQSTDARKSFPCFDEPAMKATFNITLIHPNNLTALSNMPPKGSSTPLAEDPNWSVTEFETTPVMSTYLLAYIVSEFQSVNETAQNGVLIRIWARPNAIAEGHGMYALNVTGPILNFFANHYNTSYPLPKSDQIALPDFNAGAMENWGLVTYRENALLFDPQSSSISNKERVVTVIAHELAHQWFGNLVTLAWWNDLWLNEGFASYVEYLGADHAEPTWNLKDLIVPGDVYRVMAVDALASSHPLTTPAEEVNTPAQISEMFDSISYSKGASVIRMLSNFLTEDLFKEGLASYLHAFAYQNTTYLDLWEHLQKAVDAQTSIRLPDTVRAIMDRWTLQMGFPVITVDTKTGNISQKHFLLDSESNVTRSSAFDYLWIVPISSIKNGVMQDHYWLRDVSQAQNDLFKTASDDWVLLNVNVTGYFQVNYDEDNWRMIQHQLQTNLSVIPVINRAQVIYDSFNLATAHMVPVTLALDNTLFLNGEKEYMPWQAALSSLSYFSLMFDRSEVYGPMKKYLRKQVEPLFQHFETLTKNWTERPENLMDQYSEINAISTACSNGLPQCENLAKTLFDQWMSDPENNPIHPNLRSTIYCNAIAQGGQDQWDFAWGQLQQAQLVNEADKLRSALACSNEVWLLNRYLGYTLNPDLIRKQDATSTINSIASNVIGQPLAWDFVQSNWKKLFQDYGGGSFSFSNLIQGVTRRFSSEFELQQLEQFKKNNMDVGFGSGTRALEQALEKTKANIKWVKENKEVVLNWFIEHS

[2] = target: T2, Recombinant human alanine aminopeptidase (hAPN, EC 3.4.11.2) (Homo sapiens, UniProt P15144); assay: Fluorogenic (Ala-AMC) enzyme inhibition assay, hAPN; type: biochemical; details: for Ki: racemic compounds, substrate Ala-AMC 50 µM, 50 mM Tris-HCl pH 7.00, 37 °C
T2 construct: purchased R&D System (Minneapolis, MN)

[3] = target: T2, Recombinant human alanine aminopeptidase (hAPN, EC 3.4.11.2); details: data from previous studies; cited from earlier work
[4] = target: T1, porcine kidney alanine aminopeptidase (pAPN, EC 3.4.11.2); details: data from previous studies; cited from earlier work

T2 sequence (P15144 whole entry): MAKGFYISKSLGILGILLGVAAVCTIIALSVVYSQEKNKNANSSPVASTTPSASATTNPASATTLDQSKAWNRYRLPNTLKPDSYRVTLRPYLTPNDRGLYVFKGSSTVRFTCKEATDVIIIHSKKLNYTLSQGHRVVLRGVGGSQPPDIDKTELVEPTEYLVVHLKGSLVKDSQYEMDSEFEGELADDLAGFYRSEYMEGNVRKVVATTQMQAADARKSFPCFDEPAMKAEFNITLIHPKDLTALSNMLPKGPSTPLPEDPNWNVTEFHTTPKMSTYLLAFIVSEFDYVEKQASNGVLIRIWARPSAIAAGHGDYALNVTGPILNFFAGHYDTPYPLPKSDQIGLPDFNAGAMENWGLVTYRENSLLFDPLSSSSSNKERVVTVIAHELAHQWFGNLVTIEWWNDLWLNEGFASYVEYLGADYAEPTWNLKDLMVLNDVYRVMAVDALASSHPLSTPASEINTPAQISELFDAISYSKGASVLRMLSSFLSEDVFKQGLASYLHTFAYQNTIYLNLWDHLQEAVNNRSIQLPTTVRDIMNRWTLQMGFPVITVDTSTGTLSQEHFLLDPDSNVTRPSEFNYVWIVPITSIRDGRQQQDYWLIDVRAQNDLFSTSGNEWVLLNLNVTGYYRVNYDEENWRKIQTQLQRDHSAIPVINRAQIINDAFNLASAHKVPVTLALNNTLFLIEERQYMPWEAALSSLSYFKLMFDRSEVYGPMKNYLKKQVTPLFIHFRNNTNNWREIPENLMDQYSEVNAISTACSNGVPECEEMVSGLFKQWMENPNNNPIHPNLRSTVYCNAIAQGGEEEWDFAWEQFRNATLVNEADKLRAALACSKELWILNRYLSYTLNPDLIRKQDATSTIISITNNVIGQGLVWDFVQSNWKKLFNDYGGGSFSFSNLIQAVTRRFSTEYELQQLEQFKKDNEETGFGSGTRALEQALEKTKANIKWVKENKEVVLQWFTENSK

Row | Compound | Ki [1] [µM] | Ki [2] [µM] | melting point [°C] | other results
1 | Cc1cc(=O)oc2cc(NC(=O)[C@H](C)N)ccc12 [Ala-AMC, L-alanine-4-methylcoumaryl-7-amide, reference compound] | – | – | – | Km ([1]; substrate constant, determined analogously to the literature [23], read-out: Km towards Ala-AMC, pAPN): 90 µM; Km ([2]; substrate constant, determined analogously to the literature [23], read-out: Km towards Ala-AMC, hAPN): 73 µM
2 | NC(CCc1ccc(F)c(F)c1)P(=O)(O)O (stereo not shown) [Compound 15f, 1-Amino-3-(3,4-Difluorophenyl)propylphosphonic Acid] | 1.02 ± 0.3 | 0.149 ± 0.011 | 292 to 293 | –
3 | NC(CCc1ccc(F)cc1)P(=O)(O)O (stereo not shown) [Compound 15d, 1-Amino-3-(4-Fluorophenyl)propylphosphonic Acid] | 1.69 ± 0.81 | 0.249 ± 0.025 | 303 to 305 | –
4 | NC(CCc1cccc(F)c1)P(=O)(O)O (stereo not shown) [Compound 15c, 1-Amino-3-(3-Fluorophenyl)propylphosphonic Acid] | 2.63 ± 0.18 | 0.129 ± 0.025 | 292 to 294 | times better inhibitor than 15a ([2]; ratio of Ki values versus compound 15a, the text says both aminopeptidases, the factor matches hAPN): 5
5 | NC(CCc1ccccc1C(F)(F)F)P(=O)(O)O (stereo not shown) [Compound 15h, 1-Amino-3-(2-Trifluoromethylphenyl)propylphosphonic Acid] | 7.49 ± 0.58 | 0.804 ± 0.122 | 244 to 246 | –
6 | 1-Amino-3-(2-Bromo-4-Fluorophenyl)ethylphosphonic Acid [Compound 17a] | 70 ± 6.6 | 14 ± 0.4 | – | –
7 | NC(Cc1ccc(F)c(Cl)c1)P(=O)(O)O (stereo not shown) [Compound 17t] | – | – | – | Ki [3]: 0.542 ± 0.152 µM; Ki [4]: 6.93 ± 0.78 µM
8 | NC(Cc1cc(F)ccc1Br)P(=O)(O)O (stereo not shown) [Compound 17b] | 379 ± 126 | 41.7 ± 7.4 | – | –
9 | NC(Cc1ccc(Cl)cc1F)P(=O)(O)O (stereo not shown) [Compound 17o] | – | – | – | Ki [3]: 17.8 ± 2.09 µM; Ki [4]: 160 ± 11 µM
10 | NC(CCc1ccc(F)cc1F)P(=O)(O)O (stereo not shown) [Compound 15e, 1-Amino-3-(2,4-Difluorophenyl)propylphosphonic Acid] | 1.71 ± 0.46 | 0.661 ± 0.105 | 304 to 306 | –
11 | NC(CCc1ccc(C(F)(F)F)cc1)P(=O)(O)O (stereo not shown) [Compound 15g, 1-Amino-3-(4-Trifluoromethylphenyl)propylphosphonic Acid] | 0.976 ± 0.099 | 0.347 ± 0.062 | 295 to 296 | –
12 | 1-Amino-3-(4-Bromo-2-Fluorophenyl)ethylphosphonic Acid [Compound 17d] | 82.5 ± 2 | 7.36 ± 0.21 | – | –
13 | NC(Cc1ccc(F)c(Br)c1)P(=O)(O)O (stereo not shown) [Compound 17c, 1-Amino-3-(3-Bromo-4-Fluorophenyl)ethylphosphonic Acid] | 2.22 ± 0.14 | 0.248 ± 0.024 | – | –
14 | 1-Amino-3-(4-Bromo-3-Fluorophenyl)ethylphosphonic Acid [Compound 17e] | 4.23 ± 0.44 | 0.67 ± 0.049 | – | –
15 | NC(CCc1ccccc1F)P(=O)(O)O (stereo not shown) [Compound 15b, 1-Amino-3-(2-Fluorophenyl)propylphosphonic Acid] | 12.7 ± 0.8 | 0.506 ± 0.038 | 292 to 294 | –
16 | NC(Cc1ccc(Cl)c(F)c1)P(=O)(O)O (stereo not shown) [Compound 17s] | – | – | – | Ki [3]: 1.01 ± 0.16 µM; Ki [4]: 14.8 ± 0.9 µM
